What was measured:
HIV-1 RT = HIV-1 RT (Human immunodeficiency virus type 1 group M subtype B, UniProt P04585); experiment: HIV-1 Reverse Transcriptase Assay (RNA-dependent DNA polymerase activity, SPA); assay type: biochemical; conditions: 30° C., 30 min, 10% DMSO
Description: RNA-dependent DNA polymerase activity was measured using a biotinylated primer oligonucleotide and tritiated dNTP substrate. Newly synthesized DNA was quantified by capturing the biotinylated primer molecules on streptavidin coated Scintillation Proximity Assay (SPA) beads (Amersham). The sequences of the polymerase assay substrate were: 18 nt DNA primer, 5′-Biotin/GTC CCT GTT CGG GCG CCA-3′; 47 nt RNA template, 5′-GGGUCUCUCUGGUUAGACCACUCUAGCAGUGGCGCCCGAACAGGGAC-3′. The biotinylated DNA primer was obtained from the Integrated DNA Technologies Inc. and the RNA template was synthesized by Dharmacon. The DNA polymerase assay (final volume 50 μl) contained 32 nM biotinylated DNA primer, 64 nM RNA substrate, dGTP, dCTP, dTTP (each at 5 μM), 103 nM [^3H]-dATP (specific activity=[…]), in 45 mM Tris-HCl, pH 8.0, 45 mM NaCl, 2.7 mM Mg(CH3COO)2, 0.045% Triton X-100 w/v, 0.9 mM EDTA. The reactions contained 5 ul of serial compound dilutions in 100% DMSO for IC50 determination and the final concentrations of DMSO were 10%. Reactions were initiated by the addition of 30 μl of the HIV-RT enzyme (final concentrations of 1-3 nM). Protein concentrations were adjusted to provide linear product formation for at least 30 min of incubation. After incubation at 30° C. for 30 min, the reaction was quenched by addition of 50 μl of 200 mM EDTA (pH 8.0) and […] SA-PVT SPA beads (Amersham, RPNQ0009, reconstituted in 20 mM Tris-HCl, pH 8.0, 100 mM EDTA and 1% BSA). The beads were left to settle overnight and the SPA signals were counted in a 96-well top counter-NXT (Packard).

SMILES | melting point [°C] | IC50 (HIV-1 RT) [nM]
CCc1cn(Cc2ccc(Br)c(Oc3cc(Cl)cc(C#N)c3)c2F)c(=O)[nH]c1=O [Compound I-5, 3-[6-Bromo-3-(5-ethyl-2,4-dioxo-3,4-dihydro-2H-pyrimidin-1-ylmethyl)-2-fluoro-phenoxy]-5-chloro-benzonitrile] | 224.6 to 225.6 | 1.6
COc1cn(Cc2ccc(Br)c(Oc3cc(Cl)cc(C#N)c3)c2F)c(=O)[nH]c1=O [Compound I-19, 3-[6-Bromo-2-fluoro-3-(5-methoxy-2,4-dioxo-3,4-dihydro-2H-pyrimidin-1-ylmethyl)-phenoxy]-5-chloro-benzonitrile] | 190 to 191.1 | 2.9
N#Cc1cc(Cl)cc(Oc2c(Br)ccc(Cn3ccc(N)nc3=O)c2F)c1 [Compound I-12, 3-[3-(4-Amino-2-oxo-2H-pyrimidin-1-ylmethyl)-6-bromo-2-fluoro-phenoxy]-5-chloro-benzonitrile] | 240 to 245 | 148
Cc1cc(=O)[nH]c(=O)n1Cc1ccc(Br)c(Oc2cc(Cl)cc(C#N)c2)c1F [Compound I-16, 3-[6-Bromo-2-fluoro-3-(6-methyl-2,4-dioxo-3,4-dihydro-2H-pyrimidin-1-ylmethyl)-phenoxy]-5-chloro-benzonitrile] | 227 to 228 | 26.1
N#Cc1cc(Cl)cc(Oc2c(Br)ccc(Cn3cc(CO)c(=O)[nH]c3=O)c2F)c1 [Compound I-24, 3-[6-Bromo-2-fluoro-3-(5-hydroxymethyl-2,4-dioxo-3,4-dihydro-2H-pyrimidin-1-ylmethyl)-phenoxy]-5-chloro-benzonitrile] | 226 to 227 | 11.1
C=CCC1C(=O)NC(=O)N1Cc1ccc(Br)c(Oc2cc(Cl)cc(C#N)c2)c1F (centres unmarked) [Compound I-22, 3-[3-(5-Allyl-2,4-dioxo-imidazolidin-1-ylmethyl)-6-bromo-2-fluoro-phenoxy]-5-chloro-benzonitrile] | 200 to 201 | 1000
N#Cc1cc(Cl)cc(Oc2c(Br)ccc(CN3CC(=O)NC3=S)c2F)c1 [Compound I-28, 3-[6-Bromo-2-fluoro-3-(4-oxo-2-thioxo-imidazolidin-1-ylmethyl)-phenoxy]-5-chloro-benzonitrile] | 172 to 173 | 86
N#Cc1cc(Cl)cc(Oc2c(Br)ccc(Cn3ccc(=O)[nH]c3=O)c2F)c1 [Compound I-3, 3-[6-Bromo-3-(2,4-dioxo-3,4-dihydro-2H-pyrimidin-1-ylmethyl)-2-fluoro-phenoxy]-5-chloro-benzonitrile] | 229 to 230.5 | 3.6
CCc1ccc(Cn2cc(C)c(=O)[nH]c2=O)c(F)c1Oc1cc(Cl)cc(C#N)c1 [Compound I-25, 3-Chloro-5-[6-ethyl-2-fluoro-3-(5-methyl-2,4-dioxo-3,4-dihydro-2H-pyrimidin-1-ylmethyl)-phenoxy]-benzonitrile] | 180.5 to 181.5 | 1.8
N#Cc1cc(Cl)cc(Oc2c(Br)ccc(Cn3cc(O)c(=O)[nH]c3=O)c2F)c1 [Compound I-30, 3-[6-Bromo-2-fluoro-3-(5-hydroxy-2,4-dioxo-3,4-dihydro-2H-pyrimidin-1-ylmethyl)-phenoxy]-5-chloro-benzonitrile] | 238 to 240 | 34.5
N#Cc1cc(Cl)cc(Oc2c(Br)ccc(CN3CCC(=O)NC3=O)c2F)c1 [Compound I-1, 3-[6-Bromo-3-(2,4-dioxo-tetrahydro-pyrimidin-1-ylmethyl)-2-fluoro-phenoxy]-5-chloro-benzonitrile] | 161.5 to 163 | 28.7
C[C@@H]1C(=O)NC(=O)N1Cc1ccc(Br)c(Oc2cc(Cl)cc(C#N)c2)c1F [Compound I-21, 3-[6-Bromo-2-fluoro-3-((R)-5-methyl-2,4-dioxo-imidazolidin-1-ylmethyl)-phenoxy]-5-chloro-benzonitrile] | 119 to 120 | 16.9
CCc1cn(Cc2ccc(Br)c(Oc3cc(C#N)cc(C#N)c3)c2F)c(=O)[nH]c1=O [Compound I-10, 5-[6-Bromo-3-(5-ethyl-2,4-dioxo-3,4-dihydro-2H-pyrimidin-1-ylmethyl)-2-fluoro-phenoxy]-isophthalonitrile] |  | 13.5
CN1C(=O)NC(=O)C1Cc1ccc(Br)c(Oc2cc(Cl)cc(C#N)c2)c1F (centres unmarked) [Compound I-32, 3-[6-Bromo-2-fluoro-3-(3-methyl-2,5-dioxo-imidazolidin-4-ylmethyl)-phenoxy]-5-chloro-benzonitrile] |  | 6.3
Cc1cn(Cc2ccc(Br)c(Oc3cc(C#N)cc(C#N)c3)c2F)c(=O)[nH]c1=O [Compound I-8, 5-[6-Bromo-2-fluoro-3-(5-methyl-2,4-dioxo-3,4-dihydro-2H-pyrimidin-1-ylmethyl)-phenoxy]-isophthalonitrile] | 235.6 to 236 | 4.3
Cc1cn(Cc2ccc(Cl)c(Oc3cc(Cl)cc(C#N)c3)c2F)c(=O)[nH]c1=O [Compound I-17, 3-Chloro-5-[6-chloro-2-fluoro-3-(5-methyl-2,4-dioxo-3,4-dihydro-2H-pyrimidin-1-ylmethyl)-phenoxy]-benzonitrile] | 226 to 227.5 | 3.1
N#Cc1cc(Cl)cc(Oc2c(Br)ccc(Cn3cc(Cl)c(=O)[nH]c3=O)c2F)c1 [Compound I-4, 3-[6-Bromo-3-(5-chloro-2,4-dioxo-3,4-dihydro-2H-pyrimidin-1-ylmethyl)-2-fluoro-phenoxy]-5-chloro-benzonitrile] | 260.8 to 261.7 | 4.1
N#Cc1cc(Cl)cc(Oc2c(Br)ccc(Cn3cc(C#N)c(=O)[nH]c3=O)c2F)c1 [Compound I-15, 1-[4-Bromo-3-(3-chloro-5-cyano-phenoxy)-2-fluoro-benzyl]-2,4-dioxo-1,2,3,4-tetrahydro-pyrimidine-5-carbonitrile] | 246.9 to 247.8 | 61.2
CCc1ccc(Cn2cc(Cl)c(=O)[nH]c2=O)c(F)c1Oc1cc(Cl)cc(C#N)c1 [Compound I-26, 3-Chloro-5-[3-(5-chloro-2,4-dioxo-3,4-dihydro-2H-pyrimidin-1-ylmethyl)-6-ethyl-2-fluoro-phenoxy]-benzonitrile] |  | 1.4
Cc1cn(Cc2ccc(Br)c(Oc3cc(C#N)cc(C(F)F)c3)c2F)c(=O)[nH]c1=O [Compound I-27, 3-[6-Bromo-2-fluoro-3-(5-methyl-2,4-dioxo-3,4-dihydro-2H-pyrimidin-1-ylmethyl)-phenoxy]-5-difluoromethyl-benzonitrile] | 232.3 to 234.8 | 3.3
Cn1cc(Cc2ccc(Br)c(Oc3cc(Cl)cc(C#N)c3)c2F)c(=O)[nH]c1=O [Compound I-31, 3-[6-Bromo-2-fluoro-3-(1-methyl-2,4-dioxo-1,2,3,4-tetrahydro-pyrimidin-5-ylmethyl)-phenoxy]-5-chloro-benzonitrile] | 226 to 227 | 5.9
N#Cc1cc(C#N)cc(Oc2c(Br)ccc(Cn3ccc(=O)[nH]c3=O)c2F)c1 [Compound I-11, 5-[6-Bromo-3-(2,4-dioxo-3,4-dihydro-2H-pyrimidin-1-ylmethyl)-2-fluoro-phenoxy]-isophthalonitrile] | 132 to 133 | 22.9
